Assay type in all cases: physicochemical
Series [1] in a line: Photostability of the UV filter in highly diluted ethanol solution under irradiation, analysed by UV spectroscopy. The note with it: for Half time: first order kinetic fit, half-life under COLIPA standard sun irradiation. Here is the method: The method used for assessment of photostability is based on the irradiation of a highly diluted solution of the UV-filter. The analysis after certain doses of irradiation was performed by UV-spectroscopy. The concentration of the UV-absorber in ethanol is adjusted to values between 1·10^−5 and 1·10^−6 mol/l, such that the absorbance of the solution in cuvette of 1 cm optical pathlength is equal or smaller than 0.2. The mutual protection of filter molecules can be excluded under such conditions.
Prior to irradiation of a sample the UVB-intensity at the sample position is measured with a UV-radiometer (RM-12, Dr. Gröbel Electronic GmbH). This radiometer was calibrated by comparison with a measurement of the spectral output of the metal halide lamp (including light guide and cut-off filter) using a wavelength-resolved radiometer (Gamma C11). Therefore the relationship of the reading of the RM-12 radiometer and the corresponding spectral output of the lamp is known, and one is able to determine the wavelength-resolved intensities by measuring the UVB-intensity. By changing the distance between the end of the light guide and the cuvette, the UVB-intensity can be varied in the range of 100 μW/cm^2 and 4500 μW/cm^2.
For sample irradiation the highest possible intensity was used (4.5 mW/cm^2 UVB-intensity measured with the Macam 103 radiometer). The irradiation time was varied from 0 to 180 min. The dose the sample has received after 180 minutes corresponds to 60 MED. During irradiation the sample was stirred. After certain intervals of irradiation, the samples were analysed in a UV-spectrometer (Perkin Elmer, Lambda 16).
From the absorbance values at each dose of irradiation the concentration may be calculated using Lambert-Beer's law. In order to get the half-life of the substance, a first order kinetic model was fitted to the experimental data. Since the UV-spectrum of the lamp and the UV-spectrum of the COLIPA standard sun are known, one can calculate the respective half-life of the UV-absorber under conditions of COLIPA standard sun irradiation [Bernd Herzog, Stefan Müller, Myriam Sohn, Uli Osterwalder, “New Insight and Prediction of Photostablity of Sunscreens”, SÖFW Journal 133, 26-36 (2007)].
The investigated half-time values and recovery after irradiation (10 MED) of some specific benzotropolones are listed in the table below: […]

A short description of series [2]: UV shielding properties: UV spectra in ethanol (absorption maximum, A1%1cm). More on the design: Absorption maximum λmax: unit not given here. The settings on record: for Absorption maximum λmax / A^1%1 cm: UV spectra in ethanol; for A^1%1 cm: at the absorption maximum; for Absorption bands (coverage of UV range): UV spectrum in ethanol. The text has this:
The UV shielding properties of the bisbiphenyl triazine derivatives were investigated by measuring their UV spectra in ethanol. In the following table the investigated absorption maxima (λmax) together with the corresponding A^1%1cm values are listed.

The nature of series [3]: Photostability of Ethylhexyl Methoxycinnemate in O/W sunscreen film, solar simulator, HPLC. The note with it: for Residual Ethylhexyl Methoxycinnemate: solar simulator 4 hours (10800 kJ/m2). On the procedure: The photostability of the UV-B filter Ethylhexyl Methoxycinnemate is determined by spreading the emulsion as a 20 μm thick film on a quartz plate. The film is irradiated using a solar simulator for 4 hours (10800 kJ/m2). After irradiation, the quartz plate is plunged into 5 ml of tetrahydrofurane. The amount of UV-B filter Ethylhexyl Methoxycinnemate is then determined using high performance liquid chromatography. The residual Ethylhexyl Methoxycinnemate is determined to be 59%.
The photostability of Ethylhexyl Methoxycinnemate in the comparative formulation B is determined as described above for formulation A. The residual Ethylhexyl Methoxycinnemate is determined to be 38%.

Series [4] is described as follows: Photostability of Butyl Methoxydibenzoylmethane in O/W sunscreen film, solar simulator, HPLC. The note with it: for Residual Butyl Methoxydibenzoylmethane: solar simulator 2 hours (5400 kJ/m2). On the procedure:
The photostability of Butyl Methoxydibenzoylmethane is determined by spreading the emulsion as a 20 μm thick film on a quartz plate. The film is irradiated using a solar simulator for 2 hours (5400 kJ/m2). After irradiation, the quartz plate is plunged into 5 ml of tetrahydrofurane. The amount of UV-A filter Butyl Methoxydibenzoylmethane is then determined using high performance liquid chromatography. The residual Butyl Methoxydibenzoylmethane is determined to be 42%.
The photostability of Butyl Methoxydibenzoylmethane in the comparative formulation B is determined as described above for formulation A. The residual Butyl Methoxydibenzoylmethane is determined to be 4%.

[5] abbreviates: O/W Sunscreen Formulation A (with P-01), 20 μm film on quartz plate.
Setting [6] is: comparative formulation B (without P-01), 20 μm film.
Setting [7] is: formulation A versus comparative formulation B.

`CCOC(=O)/C(=C\c1ccc(N(CC)CC)cc1)P(=O)(OCC)OCC` [Compound P-3]: the Half time in series [1] was 320 h. Further, in series [2], the “Absorption maximum λmax” value is 366, the “A^1%1 cm” value worked out at 624 and the “Absorption bands (coverage of UV range)” value is listed as “broad absorption bands”.
On to `CCCCC(CC)COC(=O)C=Cc1ccc(OC)cc1` (centres unmarked) [Ethylhexyl Methoxycinnemate, 2-ethylhexyl 4-methoxycinnamate], for which the entries for the “Residual Ethylhexyl Methoxycinnemate” value in series [3] (setting [5]) and in series [3] (setting [6]) were 59% and 38%, respectively.
As for `CCOC(=O)/C(=C\c1ccc(-c2ccccc2)cc1)P(=O)(OCC)OCC` [Compound P-7], in series [1], the “Photodegradation after irradiation of 10 MED” value is given as “no photodegradation” and the Half time stood at 466.6 h. For the same compound, in series [2], the “Absorption maximum λmax” value is 302, the “A^1%1 cm” value stood at 650 and the “Absorption bands (coverage of UV range)” value is recorded as “broad absorption bands”.
For the compound `CCOC(=O)C(=C1c2ccccc2-c2ccccc21)P(=O)(OCC)OCC` [Compound P-20], in series [1], the Half time worked out at 449.2 h. Moreover, in series [2], the “Absorption maximum λmax” value was determined as 314 and the “A^1%1 cm” value is 371.
For the compound `CCOC(=O)/C(=C\c1cc(OC)c(O)c(OC)c1)P(=O)(OCC)OCC` [Compound P-4], the Half time in series [1] worked out at 100 h. Besides, in series [2], the “Absorption maximum λmax” value is given as 322, the “A^1%1 cm” value came out at 390 and the “Absorption bands (coverage of UV range)” value is reported as “broad absorption bands”.
In turn, `CCOC(=O)/C(=C\c1cc(OC)c(OC)c(OC)c1)P(=O)(OCC)OCC` [Compound P-22] came in with a Half time in series [1] of 262.8 h. Also, in series [2], the “Absorption maximum λmax” value is on record as 299 and the “A^1%1 cm” value was 357.
The compound `CCOP(=O)(OCC)C(=Cc1ccc(-c2ccccc2)cc1)P(=O)(OCC)OCC` [Compound P-5] gave a Half time in series [1] of 7 h. Moreover, in series [2], the “Absorption maximum λmax” value was 299, the “A^1%1 cm” value amounted to 427 and the “Absorption bands (coverage of UV range)” value is “broad absorption bands”.
In series [1], `CCOC(=O)/C(=C\c1ccc(/C=C(\C(=O)OCC)P(=O)(OCC)OCC)cc1)P(=O)(OCC)OCC` [Compound P-2] came in with a Half time of 172 h. Also, in series [2], the “Absorption maximum λmax” value was determined as 302, the “A^1%1 cm” value is reported as 500 and the “Absorption bands (coverage of UV range)” value is recorded as “broad absorption bands”.
Regarding `CCOC(=O)/C(=C\c1ccc(-c2ccc(/C=C(\C(=O)OCC)P(=O)(OCC)OCC)cc2)cc1)P(=O)(OCC)OCC` [Compound P-19], the Half time in series [1] was 220.6 h. Further, in series [2], the “Absorption maximum λmax” value amounted to 324 and the “A^1%1 cm” value is recorded as 733.
With `COc1ccc(C(=O)CC(=O)c2ccc(C(C)(C)C)cc2)cc1` [Butyl Methoxydibenzoylmethane, 1-[4-(1,1-dimethylethyl)phenyl]-3-(4-methoxyphenyl)propane-1,3-dione], the “Residual Butyl Methoxydibenzoylmethane” value is 42% in series [4] (setting [5]) and 4% in series [4] (setting [6]).
With `CCOP(=O)(OCC)C(=Cc1ccc(OC)cc1)P(=O)(OCC)OCC` [Compound P-6], the Half time in series [1] is on record as 11285 h. Moreover, in series [2], the “Absorption maximum λmax” value stood at 313, the “A^1%1 cm” value turned out to be 575 and the “Absorption bands (coverage of UV range)” value was “broad absorption bands”.
For the compound `CCOC(=O)/C(=C\c1ccc(NC(C)=O)cc1)P(=O)(OCC)OCC` [Compound P-17], in series [1], the Half time turned out to be 947.6 h. In addition, in series [2], the “Absorption maximum λmax” value amounted to 308 and the “A^1%1 cm” value was 604.
`CCOC(=O)/C(=C\c1ccc(OC)cc1)P(=O)(OCC)OCC` [Compound P-1]: the “Stabilization factor of Ethylhexyl Methoxycinnemate” value in series [3] (setting [7]) is on record as 1.55. Besides, the “Stabilization factor of Butyl Methoxydibenzoylmethane” value in series [4] (setting [7]) is on record as “at least 10”. In addition, in series [1], the “Photodegradation after irradiation of 10 MED” value is listed as “no photodegradation” and the Half time was 14 311 h. For the same compound, in series [2], the “Absorption maximum λmax” value is 303, the “A^1%1 cm” value was determined as 519 and the “Absorption bands (coverage of UV range)” value is given as “broad absorption bands”.
As for `CCOC(=O)/C(=C\c1ccc(O)c(OC)c1)P(=O)(OCC)OCC` [Compound P-21], in series [2], the “Absorption maximum λmax” value is given as 319 and the “A^1%1 cm” value is 429.

The values are drawn from patent US8529877B2, “Benzylidene compounds comprising phosphono-groups” (BASF SE, priority 2008, dated 2013).
